For one data set, the system named is Bacillus subtilis. Further details: method as in earlier work. The following applies: cited from earlier work.
In data set [1] the test system is NO production in LPS + IFN-γ activated RAW 264.7 macrophages. Nature of the data set: Inhibition of LPS + IFN-γ induced nitric oxide production (Griess assay). It counts as cell-based. The following applies: for IC50: Mus musculus, read-out: NO Inhibition (IC50 in μM) (n = 8); for anti-inflammatory activity (in words): NO and TNF-α. On the procedure: (§1) RAW 264.7 macrophages were grown in 175 cm^2 flasks on DMEM containing 5% foetal bovine serum (FBS) that was supplemented with penicillin (100 μg/mL), streptomycin (100 μg/mL) and L-glutamine (2 mM). The cell line was maintained in 5% CO2 at 37 °C, with media being replaced every 3–4 days. Once cells had grown to confluence in the culture flask, they were removed using a rubber policeman, as opposed to using trypsin, which can remove membrane-bound receptors. The cell suspension was concentrated by centrifugation for 3 min at 900 rpm and re-suspended in a small volume of fresh DMEM (with 1% antibiotics and 5% FBS); cell densities were estimated using a Neubauer counting chamber. The cell concentration was adjusted with DMEM (with 1% antibiotics and 5% FBS) to obtain 60,000 cells/100 μL cell suspension. An aliquot of 100 μL of this cell suspension was dispensed into the wells of 96-well plates. Plates were incubated at 37 °C, 5% CO2 for 18 h before the activation experiments were carried out.
(§2) For assays, 90 μL of each concentration of compounds (8 concentrations made by serial dilution from 0 µg/mL to 36 µg/mL compound in DMEM) were added an hour prior to addition of 10 µL of activator. A combination of 10 μg·mL^−1 LPS and 10 U·mL^−1 (1 unit = 0.1 ng/mL) IFN-γ, were used for activation. After activation, the cells were incubated for 24 h at 37 °C and then NO, TNF-α and cell viability was determined. Unactivated cells (exposed to media alone) were used as negative control and activated cells as positive control.
Nitric oxide was determined by Griess reagent quantification of nitrite. Griess reagent was freshly made up of equal volumes of 1% sulfanilamide and 0.1% napthyethylene-diamine in 5% HCl. From each well, 50 µL of supernatant was transferred to a fresh 96-well plate and mixed with 50 µL of Griess reagent and measured at 540 nm in a POLARstar Omega microplate reader (BMG Labtech, Mornington, Australia). The concentration of nitrite was calculated using a standard curve with […] (0–500 μM), and linear regression analysis.
(§3) Data calculations were performed using MS-Excel 2010 software. IC50 values were obtained by using the sigmoidal dose–response function in GraphPad Prism. The results were expressed as mean ± standard deviation (SD).

A short description of data set [2]: Cell viability by the Alamar Blue assay (cytotoxicity). It counts as cell-based. The following applies: mouse, RAW 264.7, 24 h, mean ± SD, read-out: Cytotoxicity (LC50 in μM) (n = 8). On the procedure:
as §1, §2
One hundred microlitres of Alamar Blue solution (10% Alamar Blue (Resazurin) in DMEM media) was added to each well, incubated at 37 °C for 2 h. After incubation, fluorescence intensity was measured with the microplate reader (excitation at 530 nm and emission at 590 nm) and results were expressed as a percentage of the intensity of that in control cells, after background fluorescence was subtracted.
as §3
Background: Resazurin is reduced to fluorescent resorufin, in cell work by metabolically active cells.

Data set [3] relates to TNF-α production in LPS + IFN-γ activated RAW 264.7 macrophages. Put plainly: Inhibition of LPS + IFN-γ induced TNF-α production (ELISA). It counts as cell-based. The following applies: for IC50: Mus musculus, read-out: TNF-α Inhibition (IC50 in µM) (n = 3). Here is the method:
as §1, §2
The diluted supernatants were used for determination of TNF-α using a commercial sandwich ELISA (Peprotech) according to the manufacturer’s protocol. In brief, the capture antibody was used at a concentration of 1.5 μg·mL^−1 in PBS (1.9 mM NaH2PO4, 8.1 mM Na2HPO4, 154 mM NaCl) (pH 7.4). Serial dilutions of TNF-α standard from 0 to 10,000 pg·mL^−1 in diluent (0.05% Tween-20, 0.1% BSA in PBS) were used as internal standard. TNF-α was detected with a biotinylated second antibody and an Avidin peroxidase conjugate with TMB as detection reagent. The colour development was monitored at 655 nm, taking readings every 5 min. After approximately 30 min the reaction was stopped using 0.5 M sulphuric acid and the absorbance was measured at 450 nm using a POLARstar Omega microplate reader (BMG Labtech, Mornington, Australia), expressed as a percentage in control cells after conversion of the concentrations, using a standard curve constructed with defined concentrations of TNF-α. Curve fitting of this standard curve and extrapolation of experimental data were performed using non-linear regression analysis.
as §3

The subject of a further data set is SCC4 OSCC cells. Further details: method as in doi:10.1016/j.jff.2015.07.017. The following applies: read-out: suppression of proliferation IC50; cited from earlier work.
The next data set concerns SCC2095 OSCC cells. Further details: method as in doi:10.1016/j.jff.2015.07.017. The following applies: read-out: suppression of proliferation IC50; cited from earlier work.
For data set [4], the system named is 12-O-tetradecanoylphorbol 13 acetate (TPA)-induced topical inflammation in mice ears. Further details: method as in PMID 16697209. The following applies: cited from earlier work.
For data set [5], the system named is NO production in LPS-stimulated RAW 264.7 cells. Also on record: method as in PMID 19557361. The following applies: cited from earlier work.
Setting [6] is: RAW264.7, RAW 264.7, LPS + IFN-γ, 24 h, Griess assay, mean ± SD.
[7] abbreviates: RAW 264.7 macrophages activated with LPS and IFN-γ.
[8] abbreviates: RAW264.7, RAW 264.7, LPS + IFN-γ, 24 h, ELISA, mean ± SD.

The structures appear in SMILES notation. Like-named read-outs stand apart in the source and are kept apart here.

In the case of `C=C(C)C1CCC2(C(=O)O)CCC3(C)C(CCC4C5(C)CC(=O)C(O)C(C)(C)C5CCC43C)C12` (stereo not shown) [2-ketobetulinic acid, reference compound], the antibacterial activity result in the data set on Bacillus subtilis is “showed antibacterial activity”.
Take `C=C(C)[C@@H]1CC[C@]2(C(=O)O)CC[C@]3(C)[C@H](CC[C@@H]4[C@@]5(C)[C@@H](C(=O)O)[C@H](O)C(C)(C)[C@@H]5CC[C@]43C)C12` (stereo partly shown) [Compound 1, emmolic acid]: the IC50 in data set [1] (RAW264.7, 24 h) was greater than 36 µM; in data set [3] (RAW264.7, 24 h) it was greater than 36 µM. In addition, the “anti-inflammatory activity (in words)” value in data set [1] (RAW 264.7, LPS + IFN-γ) was “inactive”. For the same compound, the CC50 at 24 h in data set [2] is greater than 36 µM.
On to `C=C(C)[C@@H]1CC[C@]2(C(=O)O)CC[C@]3(C)[C@H](CC[C@@H]4[C@@]5(C)C[C@@H](O)[C@H](O)C(C)(C)[C@@H]5CC[C@]43C)[C@@H]12` [Compound 2, alphitolic acid], for which the IC50 was 12 µM in the data set with SCC4 OSCC cells; 17.6 ± 0.7 µM in data set [1] (RAW264.7, 24 h); 15 µM in the data set on SCC2095 OSCC cells; 22.7 ± 1.1 µM in data set [3] (RAW264.7, 24 h). In addition, the CC50 at 24 h in data set [2] was 18.6 ± 0.8 µM. Besides, in data set [4], the “inhibition of TPA-induced topical inflammation” value is given as “inhibit”.
Turning to `C=C(C)[C@@H]1CC[C@]2(C(=O)O)CC[C@]3(C)[C@H](CC[C@@H]4[C@@]5(C)C[C@@H](OC(=O)/C=C/c6ccc(O)cc6)[C@H](O)C(C)(C)[C@@H]5CC[C@]43C)[C@@H]12` [Compound 3, trans-coumaroyl alphitolic acid], the IC50 in data set [1] (RAW264.7, 24 h) is 1.7 ± 0.3 µM; in data set [3] (RAW264.7, 24 h) it was 10.9 ± 2.3 µM. Besides, in data set [1] (RAW 264.7, LPS + IFN-γ), the “increase in potency of NO inhibition compared with compound 2” value is recorded as “ten-fold”. Further, the CC50 at 24 h in data set [2] came to 4.8 ± 0.9 µM.
Consider `C=C(C)[C@@H]1CC[C@]2(C(=O)O)CC[C@]3(C)[C@H](CC[C@@H]4[C@@]5(C)C[C@@H](OC(=O)/C=C\c6ccc(O)cc6)[C@H](O)C(C)(C)[C@@H]5CC[C@]43C)[C@@H]12` [Compound 4, cis-coumaroyl alphitolic acid], for which the IC50 was 3.5 ± 0.5 µM in data set [1] (RAW264.7, 24 h) and 5.6 ± 0.4 µM in data set [3] (RAW264.7, 24 h). The CC50 at 24 h in data set [2] turned out to be 8 ± 0.3 µM. Moreover, the “inhibition of TNF-α (in words)” value in data set [3] (RAW 264.7, LPS + IFN-γ) is recorded as “strong inhibition”.
For the compound `C=C(C)[C@@H]1CC[C@]2(C(=O)O)CC[C@]3(C)[C@H](CC[C@@H]4[C@@]5(C)CC[C@H](O)C(C)(C)[C@@H]5CC[C@]43C)[C@@H]12` [Compound 5, betulinic acid], the IC50 in data set [1] (setting [6]) came out at 8.3 ± 1 µM; in data set [3] (setting [8]), 23.5 ± 3.7 µM. Besides, the CC50 at 24 h in data set [2] (setting [7]) amounted to 29.1 ± 4.4 µM. In addition, the antibacterial activity result in the data set with Bacillus subtilis was “showed antibacterial activity”.
With `C=C(C)[C@@H]1CC[C@]2(C(=O)O)CC[C@]3(C)[C@H](CC[C@@H]4[C@@]5(C)[C@@H](C(=O)O)[C@H](OC(C)=O)C(C)(C)[C@@H]5CC[C@]43C)C12` (stereo partly shown) [Compound 6, emmolic acid acetate], the IC50 in data set [1] (setting [6]) was 14.7 ± 0.6 µM; in data set [3] (setting [8]), greater than 36 µM. In data set [1] (RAW 264.7, LPS + IFN-γ), the “anti-inflammatory activity (in words)” value is “moderate anti-inflammatory activity”. Further, the CC50 at 24 h in data set [2] worked out at 13.1 ± 2.5 µM.
With `O=C(O)Cc1ccccc1Nc1c(Cl)cccc1Cl` [Diclofenac, diclofenac sodium, reference compound], the IC50 in data set [1] (setting [6]) was 217 ± 43 µM; in data set [3] (setting [8]), greater than 333 µM. Moreover, the CC50 at 24 h in data set [2] (setting [7]) is greater than 333 µM.
With `CC(C)Cc1ccc(C(C)C(=O)O)cc1` (stereo not shown) [Ibuprofen, ibuprofen, reference compound], the IC50 in data set [1] (setting [6]) is 1160 ± 133 µM; in data set [3] (setting [8]) it was 723 ± 261 µM. Besides, the CC50 at 24 h in data set [2] (setting [7]) is greater than 1500 µM.
As to `C=C(C)C1CCC2(C(=O)O)CCC3(C)C(CCC4C5(C)CCC(OC(=O)C=Cc6ccc(O)c(O)c6)C(C)(C)C5CCC43C)C12` (stereo not shown) [betulinic acid 3-O-caffeate], the “NO inhibition (in words)” value in data set [5] is “most active compound”.
